How the values were obtained:
[1] = biological target: CYP2C9 (Homo sapiens, UniProt P11712); assay: Cytochrome P450 reaction phenotyping, recombinant CYP2C9; settings: for t½: 1 µM substrate, recombinant CYP2C9, NADPH
Procedure: (§1) The amount of test compound remaining at each time point was analysed by LC-MS/MS. Incubations in control recombinant enzymes were also performed to assess non-enzymatic mediated stability.
(§2) Incubations were also performed using control Bactosomes™ (no cytochrome P450 enzymes present) to reveal any non-enzymatic degradation. Control compounds known to be metabolised specifically by each P450 isoform were included. All incubations were performed singularly for each test compound. […] The reactions were stopped by transferring an aliquot of incubate to quench solvent at the appropriate time points, in a 1:3 ratio. The termination plates were centrifuged at 3,000 rpm for 20 min at 4° C. to precipitate the protein. Following protein precipitation, the sample supernatants were analysed using LC-MS/MS, along with internal standard (1:1 supernatant to internal standard).
(§3) Following correction for any loss in the incubations with the control Bactosomes™, from a plot of In peak area ratio (compound peak area/internal standard peak area) against time, the gradient of the line was determined. Subsequently, half-life (t½) was calculated using the equations below: […]

[2] = tested on: human liver microsomes; assay: Metabolic stability in human liver microsomes with or without CYP1A2 inhibitor furafylline; settings: 10 µM furafylline versus no inhibitor
Procedure: (§4) The amount of test compound remaining at each time point was analysed by LC-MS/MS. An incubation in the absence of NADPH was also performed to assess non-CYP mediated stability.
(§5) In the pre-screen assay, […] 0.1 M phosphate buffer pH 7.4 (final substrate concentration 1 µM) were pre-incubated at 37° C. prior to the addition of NADPH (final concentration 1 mM) to initiate the reaction. A minus cofactor control incubation was included for each compound tested where 0.1 M phosphate buffer pH 7.4 was added instead of NADPH (minus NADPH). […] A minus cofactor control incubation was included for each compound tested where 0.1 M phosphate buffer pH 7.4 was added instead of cofactor (minus NADPH). […] The reactions were stopped by transferring an aliquot of incubate to acetonitrile at the appropriate time points, in a 1:3 ratio. The termination plates were centrifuged at 3,000 rpm for 20 min at 4° C. to precipitate the protein. Following protein precipitation, the sample supernatants were analysed using LC-MS/MS, along with internal standard (1:1 supernatant to internal standard).
(§6) From a plot of In peak area ratio (compound peak area/internal standard peak area) against time, the gradient of the line was determined. Subsequently, half-life and intrinsic clearance were calculated using the equations below: […]

[3] = tested on: CYP1A2; assay: as above; settings: human, microsomes; for microsomal CLint at 1 µM: pH 7.4, CLint
Procedure: as §4, §5, §6

[4] = as above; settings: human, microsomes
Procedure: as §4, §5, §6

[5] = biological target: T1, CYP3A4 (Homo sapiens, UniProt P08684); assay: Cytochrome P450 reaction phenotyping, recombinant CYP3A4; assay type: in vitro ADME
T1 construct: purchased
Procedure: as §1, §2, §3

[6] = tested on: CYP1A2; assay: Stability in human cryopreserved hepatocytes with or without CYP1A2 inhibitors (assays 1 to 3); settings: human, hepatocytes; for half-life at 1 µM: t½
Procedure: (§7) In each assay, the amount of test compound remaining at each time point was analysed by LC-MS/MS.
(§8) The final incubation volume was 500 µL. […] A positive control compound, ethoxycoumarin, for CYP1A2 (as CYP1A2 substrate) was included. […] The reactions were stopped by transferring 50 µL of incubate to 100 µL acetonitrile containing internal standard at the appropriate time points (0, 5, 10, 20, 40 and 60 min). The termination plates were centrifuged at 2500 rpm at 4° C. for 30 min to precipitate the protein.
(§9) From a plot of In peak area ratio (compound peak area/internal standard peak area) against time, the gradient of the line was determined. Subsequently, half-life (t½) and intrinsic clearance (CLint) were calculated using the equations below: […]

[7] = as above; settings: human, hepatocytes; for half-life at 1 µM: t½
Procedure: as §7, §8, §9

[8] = biological target: T2, CYP2C19 (Homo sapiens, UniProt P33261); assay: Cytochrome P450 reaction phenotyping, recombinant CYP2C19; assay type: in vitro ADME; settings: for t½: 1 µM substrate, recombinant CYP2C19, NADPH
T2 construct: purchased
Procedure: as §1, §2, §3

Sequence of CYP2C9 (P11712 whole entry): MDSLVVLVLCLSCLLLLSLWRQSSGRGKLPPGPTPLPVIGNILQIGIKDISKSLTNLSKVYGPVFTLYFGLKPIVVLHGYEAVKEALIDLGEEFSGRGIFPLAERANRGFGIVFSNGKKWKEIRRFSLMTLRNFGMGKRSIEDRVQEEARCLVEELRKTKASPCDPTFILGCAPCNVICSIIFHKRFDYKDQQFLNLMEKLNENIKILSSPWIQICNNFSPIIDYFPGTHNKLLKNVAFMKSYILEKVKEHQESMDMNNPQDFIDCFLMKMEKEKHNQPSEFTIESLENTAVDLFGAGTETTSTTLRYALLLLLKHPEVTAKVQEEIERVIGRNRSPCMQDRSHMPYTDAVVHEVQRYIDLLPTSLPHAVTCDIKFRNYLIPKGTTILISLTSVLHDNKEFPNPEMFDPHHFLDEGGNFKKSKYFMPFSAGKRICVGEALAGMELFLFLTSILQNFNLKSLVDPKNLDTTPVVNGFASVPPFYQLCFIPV
T2 sequence (P33261 whole entry): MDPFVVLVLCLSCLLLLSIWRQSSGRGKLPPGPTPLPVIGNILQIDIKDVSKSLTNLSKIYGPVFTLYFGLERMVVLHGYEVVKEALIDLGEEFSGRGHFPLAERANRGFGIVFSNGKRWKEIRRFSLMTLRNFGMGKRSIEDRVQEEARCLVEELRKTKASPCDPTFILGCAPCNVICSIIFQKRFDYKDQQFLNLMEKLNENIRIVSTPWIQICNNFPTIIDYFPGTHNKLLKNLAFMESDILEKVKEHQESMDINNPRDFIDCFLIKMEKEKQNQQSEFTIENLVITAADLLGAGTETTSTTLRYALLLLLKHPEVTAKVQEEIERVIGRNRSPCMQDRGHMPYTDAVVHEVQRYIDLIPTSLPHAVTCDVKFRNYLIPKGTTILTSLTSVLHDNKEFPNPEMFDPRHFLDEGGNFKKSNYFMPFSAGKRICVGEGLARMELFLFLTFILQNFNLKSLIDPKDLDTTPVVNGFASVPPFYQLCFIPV
T1 sequence (P08684 whole entry): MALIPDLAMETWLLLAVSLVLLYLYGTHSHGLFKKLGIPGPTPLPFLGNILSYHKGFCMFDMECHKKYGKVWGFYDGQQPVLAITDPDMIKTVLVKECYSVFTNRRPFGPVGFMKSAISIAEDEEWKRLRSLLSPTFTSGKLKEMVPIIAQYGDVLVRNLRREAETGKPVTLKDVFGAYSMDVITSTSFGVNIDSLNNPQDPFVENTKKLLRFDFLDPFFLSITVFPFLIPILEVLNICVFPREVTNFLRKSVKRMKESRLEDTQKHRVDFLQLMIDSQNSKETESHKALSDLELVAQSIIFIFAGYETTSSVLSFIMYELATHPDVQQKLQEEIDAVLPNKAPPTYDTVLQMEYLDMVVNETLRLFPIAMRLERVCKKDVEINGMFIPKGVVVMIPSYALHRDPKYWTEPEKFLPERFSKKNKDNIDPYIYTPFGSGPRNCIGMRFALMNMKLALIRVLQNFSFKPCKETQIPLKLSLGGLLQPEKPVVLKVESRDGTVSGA

COC(=O)Nc1nc2cc(C(=O)c3ccc(F)cc3)ccc2[nH]1 [Flubendazole, methyl N-[6-(4-fluorobenzoyl)-1H-benzimidazol-2-yl]carbamate]
t½ [1]: 5720 min
t½ ([1]; listed as flubendazole): ≥ 147 min
Compound Remaining (% of 0 min) ([1]; CYP2C9, 0 min): 100%
Compound Remaining (% of 0 min) ([1]; CYP2C9, 5 min): 97.4%
Compound Remaining (% of 0 min) ([1]; CYP2C9, 15 min): 101%
Compound Remaining (% of 0 min) ([1]; CYP2C9, 30 min): 97.9%
Compound Remaining (% of 0 min) ([1]; CYP2C9, 45 min): 99.0%
increase in half-life [2]: > 14 times
microsomal CLint at 1 µM ([3]; 1 µM substrate, plus 3 µM furafylline): 14.6 µL/min/mg
microsomal CLint at 1 µM ([3]; 1 µM substrate, plus 10 µM furafylline): 3.52 µL/min/mg
microsomal CLint at 1 µM ([3]; 1 µM substrate, plus 30 µM furafylline): 5.39 µL/min/mg
half-life at 1 µM ([3]; pH 7.4, half-life, 1 µM flubendazole, 10 µM furafylline): 396 min
half-life at 1 µM ([3]; pH 7.4, t½, 1 µM substrate, plus 3 µM furafylline): 95.1 min
half-life at 1 µM ([3]; pH 7.4, t½, 1 µM substrate, plus 10 µM furafylline): 394 min
half-life at 1 µM ([3]; pH 7.4, t½, 1 µM substrate, plus 30 µM furafylline): 257 min
microsomal CLint at 1 µM ([4]; pH 7.4, CLint, 1 µM substrate, no inhibitor): 50.3 µL/min/mg
microsomal CLint at 1 µM ([4]; pH 7.4, intrinsic clearance (CLint), pre-screen assay, absence of inhibitor): 43.7 µL/min/mg
half-life at 1 µM ([4]; pH 7.4, t½, 1 µM substrate, no inhibitor): 27.6 min
Compound Remaining (% of 0 min) ([5]; CYP3A4, 0 min): 100%
Compound Remaining (% of 0 min) ([5]; CYP3A4, 5 min): 94.6%
Compound Remaining (% of 0 min) ([5]; CYP3A4, 15 min): 98.2%
Compound Remaining (% of 0 min) ([5]; CYP3A4, 30 min): 100%
Compound Remaining (% of 0 min) ([5]; CYP3A4, 45 min): 97.5%
half-life at 1 µM ([5]; human, pH 7.4, 1 µM substrate, recombinant CYP3A4, NADPH, minus value = not metabolised, read-out: t½): ≥ 147 min
hepatocyte CLint at 1 µM ([6]; assay 2, fluvoxamine 10 µM): 3.95 ± 0.941 µL/min/1e6 cells
hepatocyte CLint at 1 µM ([6]; assay 2, furafylline 1 µM): 2.05 ± 2.04 µL/min/1e6 cells
hepatocyte CLint at 1 µM ([6]; assay 2, furafylline 3 µM): 1.7 ± 0.885 µL/min/1e6 cells
hepatocyte CLint at 1 µM ([6]; assay 2, thiabendazole 10 µM): 2.96 ± 1.17 µL/min/1e6 cells
hepatocyte CLint at 1 µM ([6]; assay 3, cimetidine 10 µM): 5.43 ± 1.9 µL/min/1e6 cells
hepatocyte CLint at 1 µM ([6]; assay 3, cimetidine 100 µM): 10.9 ± 1.27 µL/min/1e6 cells
hepatocyte CLint at 1 µM ([6]; assay 3, cimetidine 300 µM): 9.19 ± 1.7 µL/min/1e6 cells
hepatocyte CLint at 1 µM ([6]; assay 3, mexiletine 10 µM): 0.861 ± 0.522 µL/min/1e6 cells
hepatocyte CLint at 1 µM ([6]; assay 3, mexiletine 300 µM): 5.85 ± 1.25 µL/min/1e6 cells
half-life at 1 µM ([6]; assay 2, fluvoxamine 10 µM): 351 min
half-life at 1 µM ([6]; assay 2, furafylline 1 µM): 677 min
half-life at 1 µM ([6]; assay 2, furafylline 3 µM): 816 min
half-life at 1 µM ([6]; assay 2, thiabendazole 10 µM): 468 min
half-life at 1 µM ([6]; assay 3, cimetidine 10 µM): 255 min
half-life at 1 µM ([6]; assay 3, cimetidine 100 µM): 128 min
half-life at 1 µM ([6]; assay 3, cimetidine 300 µM): 151 min
half-life at 1 µM ([6]; assay 3, mexiletine 10 µM): 1610 min
half-life at 1 µM ([6]; assay 3, mexiletine 300 µM): 237 min
hepatocyte CLint at 1 µM ([7]; CLint, assay 2, no inhibitor): 8.62 ± 2.23 µL/min/1e6 cells
hepatocyte CLint at 1 µM ([7]; CLint, assay 3, no inhibitor): 16.7 ± 2.06 µL/min/1e6 cells
hepatocyte CLint at 1 µM ([7]; intrinsic clearance, assay 1 (pre-screening assay), no inhibitor): 15.2 ± 1.09 µL/min/1e6 cells
half-life at 1 µM ([7]; assay 2, no inhibitor): 161 min
half-life at 1 µM ([7]; assay 3, no inhibitor): 82.8 min
t½ [8]: 815 min
t½ ([8]; listed as flubendazole): ≥ 147 min
Compound Remaining (% of 0 min) ([8]; CYP2C19, 0 min): 100%
Compound Remaining (% of 0 min) ([8]; CYP2C19, 5 min): 99.5%
Compound Remaining (% of 0 min) ([8]; CYP2C19, 15 min): 97.7%
Compound Remaining (% of 0 min) ([8]; CYP2C19, 30 min): 98.8%
Compound Remaining (% of 0 min) ([8]; CYP2C19, 45 min): 95.5%
